Data published in patent US6812222B1, “Biocompatible aqueous solution for use in continuous ambulatory peritoneal dialysis” (priority 1995, dated 2004).
Read-outs that look alike come from different tables or passages of the source.

Legend:
[1] = test system: chemically induced inflammatory bowel reaction with bowel wall thickening or fibrosis; assay: Colon fibrosis (weight of 8 cm of colon) after intrarectal TNB/ethanol in rats; type: in vivo; conditions: for Colon fibrosis (as measured by weight of 8 cm of colon), mean ± SEM: rats
Source text: In animal models of inflammatory bowel disease the colon becomes fribrotic, as does the peritoneum as a result of chronic intraperitoneal dialysis. […] It is to be expected that in a similar manner NAG will prevent the development of fibrosis of the peritoneum in CAPD patients. [table]

peritoneal membrane = type: in vivo, rats; conditions: for Hyaluronic Acid in Dialysate Fluid / Mass Transfer Area Coef for Urea / Peritoneal Clearance of Urea: 4 hours dwell; for Net Ultrafiltration: pH 7.35-7.4, 4 hours dwell, 20 mL infused
Experimental: In experiments in which rats were dialyzed for 4 hours with Hanks Balances salt solution with either glucose or N-acetylglucosamine added at a concentration of 75 mM or 214 mM, at a pH of 7.35-7.4. The net utrafiltration was calculated as the difference between the drained volume of dialysate after 4 hours dwell time in the peritoneal cavity and the infused volume (20 mL) of the dialysis fluid. As well, the concentration of urea and creatinine in the blood and the dialysis fluid were measured. Permeability of the peritoneal membrane to urea and creatinine, expressed as the Mass Transfer Area Coefficient which was calculated according to the method of Krediet et al (Blood Purif 4: 194, 1986). […] In addition, the inclusion of NAG in the dialysate fluid stimulated the synthesis of hyaluronic acid, as shown by the more than 100% increase in amount of hyaluronic acid secreted in the dialysis fluid compared to the glucose treated rats.

human mesothelial cells = assay: Stimulation of hyaluronic acid in tissue culture of human mesothelial cells; type: cell-based
[2] = 7.5% solution; cited from earlier work
[3] = versus glucose, rats dialyzed 4 hours

Molecule	Colon fibrosis (as measured by weight of 8 cm of colon), mean ± SEM ([1]; 25 mg NAG/kg BWt intrarectal 1 hr before TNB/EtOH)	Colon fibrosis (as measured by weight of 8 cm of colon), mean ± SEM ([1]; 50 mg NAG/kg BWt intrarectal 1 hr before TNB/EtOH)	Colon fibrosis (as measured by weight of 8 cm of colon), mean ± SEM ([1]; 100 mg NAG/kg BWt intrarectal 1 hr before TNB/EtOH)	Fibrotic reaction to the inflammatory stimulus ([1]; solution of NAG administered into the bowel of rats)	Hyaluronic Acid in Dialysate Fluid (peritoneal membrane; 75 mM in dialysis fluid)	Mass Transfer Area Coef for Urea (peritoneal membrane; 75 mM in dialysis fluid)	Peritoneal Clearance of Urea (peritoneal membrane; 75 mM in dialysis fluid)	Net Ultrafiltration (peritoneal membrane; 75 mM in dialysis fluid)	Hyaluronic Acid in Dialysate Fluid (peritoneal membrane; 214 mM in dialysis fluid)	Mass Transfer Area Coef for Urea (peritoneal membrane; 214 mM in dialysis fluid)	Peritoneal Clearance of Urea (peritoneal membrane; 214 mM in dialysis fluid)	Net Ultrafiltration (peritoneal membrane; 214 mM in dialysis fluid)	Increase in amount of hyaluronic acid secreted in the dialysis fluid (peritoneal membrane; compared to the glucose treated rats)	Albumin or total protein loss into the dialysis fluid (in words) (peritoneal membrane; rat, in vivo)	Net ultrafiltration (in words) (peritoneal membrane; [3])	Peritoneal clearance of urea (in words) (peritoneal membrane; [3])	Stimulation of hyaluronic acid (human mesothelial cells)	Osmolality [2]	pH of solution [2]
CC(=O)N[C@H]1C(O)O[C@H](CO)[C@@H](O)[C@@H]1O (stereo partly shown) [NAG, N-acetylglucosamine]	1.669 ± 0.142 gm	1.339 ± 0.155 gm	1.150 ± 0.068 gm	reduces in a dose dependent manner	226 ± 93 µg/L	0.287 ± 0.13 mL/min	18.4 ± 2.1 mL/min	−0.11 ± 1.6 mL/4 hrs	217 µg/L	0.262 ± 0.15 mL/min	30.0 mL/min	14.45 mL/4 hrs	more than 100%	without increasing	statistically significant increase	statistically significant increase	stimulation of hyaluronic acid by N-acetylglucosamine was confirmed	–	–
Icodextrin	–	–	–	–	–	–	–	–	–	–	–	–	–	–	–	–	–	282 mOsm/kg	5.3
